Test results as given in ChEMBL document CHEMBL1201862, “PubChem BioAssay data set” (2004).
Where “and” joins values, the source holds several entries; their conditions need not be identical. Identical values can stand only once.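 Following 48 hours of exposure in 96-well plates, responses at five concentrations were used to interpolate endpoints linearly. Here, GI50 denotes the concentration required for 50% inhibition of growth.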 Calls of active or inactive are those of the source. No stated cut-off is given here; in the data, active = GI50 up to about 1.1 µM and inactive = higher.

Key:
Assay in all cases: NCI anticancer screen, dose series, 48 h
[1] = tested on: NCI-H226
[2] = tested on: K562
[3] = tested on: ACHN
[4] = tested on: HCT-15
[5] = tested on: HOP-92
[6] = tested on: OVCAR-8
[7] = tested on: SK-OV-3
[8] = tested on: HCC 2998
[9] = tested on: SK-MEL-5
[10] = tested on: DU-145
[11] = tested on: A549
[12] = tested on: SF-539
[13] = tested on: SN12C
[14] = tested on: MCF7
[15] = tested on: UACC-257
[16] = tested on: OVCAR-4
[17] = tested on: T47D
[18] = tested on: KM12
[19] = tested on: RPMI-8226

Compound | GI50 [1] | GI50 [2] | GI50 [3] | GI50 [4] | GI50 [5] | GI50 [6] | GI50 [7] | GI50 [8] | GI50 [9] | GI50 [10] | GI50 [11] | GI50 [12] | GI50 [13] | GI50 [14] | GI50 [15] | GI50 [16] | GI50 [17] | GI50 [18] | GI50 [19]
Cc1ccc(-n2cc(-c3ccc(Cl)cc3)c3c2N=CN2N=C(c4ccco4)NC32)cc1 (centres undefined) | 11.2 µM (inactive) | 7.41 µM (inactive) | 4.24 µM (inactive) | > 100 µM | 2.09 µM (inactive) | 6.28 µM (inactive) | 4.13 µM (inactive) | > 100 µM (inactive) | > 100 µM (inactive) | > 100 µM (inactive) | 15 µM (inactive) | 15.2 µM (inactive) | 3.62 µM (inactive) | 23.7 µM (inactive) | > 100 µM (inactive) | 1.93 µM (inactive) | – | – | –
CCOC(CCCN1CCC2(CC1)C(=O)N(C)CN2c1ccccc1)(OCC)c1ccc(F)cc1 | 18.3 µM (inactive) | 14 µM (inactive) | 5.16 µM (inactive) | 10.1 µM | – | 15.4 µM (inactive) | 21.8 µM (inactive) | 8.85 µM (inactive) | 3.45 µM (inactive) | 6.87 µM (inactive) | 8.65 µM (inactive) | 3.77 µM (inactive) | 10.3 µM (inactive) | 3.8 µM (inactive) | 6.14 µM (inactive) | – | 4.95 µM (inactive) | 15.3 µM (inactive) | 10.5 µM (inactive)
Cc1cc(CC(O)(C(F)(F)F)C(F)(F)F)cc(CC(O)(C(F)(F)F)C(F)(F)F)n1 | 2.72 µM (inactive) | 4.28 µM (inactive) | 2.79 µM (inactive) | 4.08 µM | 2.55 µM (inactive) | 3.48 µM (inactive) | – | 4.23 µM (inactive) | 1.72 µM (inactive) | 2.74 µM (inactive) | 3.3 µM (inactive) | 3.43 µM (inactive) | 3.1 µM (inactive) | – | 2.89 µM (inactive) | 3.47 µM (inactive) | 2.67 µM (inactive) | 2.27 µM (inactive) | 1.61 µM (inactive)
O=C1CCCC2=C1CC1=C(CCCC1=O)N2c1ccccc1 | > 100 µM (inactive) | > 100 µM (inactive) | > 100 µM (inactive) | > 100 µM | > 100 µM (inactive) | > 100 µM (inactive) | > 100 µM (inactive) | > 100 µM (inactive) | > 100 µM (inactive) | – | > 100 µM (inactive) | > 100 µM (inactive) | > 100 µM (inactive) | > 100 µM (inactive) | – | > 100 µM (inactive) | – | > 100 µM (inactive) | > 100 µM (inactive)
COc1ccc(-c2nc(-c3ccc(OC)cc3)n(-c3ccccc3)n2)cc1 | > 100 µM (inactive) | – | > 100 µM (inactive) | > 100 µM | 52 µM (inactive) | > 100 µM (inactive) | > 100 µM (inactive) | – | 54.1 µM (inactive) | > 100 µM (inactive) | 56.6 µM (inactive) | > 100 µM (inactive) | > 100 µM (inactive) | > 100 µM (inactive) | > 100 µM (inactive) | 31.7 µM (inactive) | 22.9 µM (inactive) | 40.2 µM (inactive) | –
CCN(CC)c1nc(N(C)C)c2cc(OC)ccc2n1 | 21.9 µM (inactive) | 20.8 µM (inactive) | 33 µM (inactive) | 30.6 µM | 24.2 µM (inactive) | 26.2 µM (inactive) | – | 18.5 µM (inactive) | 17.4 µM (inactive) | 42.2 µM (inactive) | 27.9 µM (inactive) | 21.3 µM (inactive) | 22.2 µM (inactive) | 22.2 µM (inactive) | 24.7 µM (inactive) | 43.6 µM (inactive) | – | 26.6 µM (inactive) | 20.1 µM (inactive)
CC(=O)OC(/C=C/c1ccccc1)P1(=O)N(CC(C)(C)C)[C@@H]2CCCC[C@H]2N1CC(C)(C)C (some centres undefined) | 6.87 µM (inactive) and 10.9 µM (inactive) | 5.02 µM (inactive) and 4.68 µM (inactive) | 10 µM (inactive) and 7.57 µM (inactive) | 6.75 µM and 4.97 µM | 12 µM (inactive) | 6.56 µM (inactive) and 7.1 µM (inactive) | 15.2 µM (inactive) and 8.71 µM (inactive) | 5 µM (inactive) and 2.77 µM (inactive) | 5.26 µM (inactive) and 6.3 µM (inactive) | 10.4 µM (inactive) and 9.75 µM (inactive) | 5.05 µM (inactive) and 4.55 µM (inactive) | 8.11 µM (inactive) and 13.6 µM (inactive) | 10.4 µM (inactive) and 7.59 µM (inactive) | 4.79 µM (inactive) and 4.61 µM (inactive) | 4.07 µM (inactive) and 3.3 µM (inactive) | 5.35 µM (inactive) and 5.22 µM (inactive) | – | 6.3 µM (inactive) and 6.65 µM (inactive) | 3.1 µM (inactive)
CC(=O)/C=C1\Nc2ccc([N+](=O)[O-])cc2N\C1=C/C(C)=O | 39.4 µM (inactive) | 50.8 µM (inactive) | 42.5 µM (inactive) | 33.4 µM | 28.4 µM (inactive) | 33.5 µM (inactive) | 90.8 µM (inactive) | – | 24.7 µM (inactive) | 80.5 µM (inactive) | 38.3 µM (inactive) | 46.6 µM (inactive) | 28.7 µM (inactive) | – | 21.9 µM (inactive) | 44.7 µM (inactive) | 33.8 µM (inactive) | 34.3 µM (inactive) | 20.6 µM (inactive)
